Earlier results, collected in patent publication US20030203881A1, “Method of treating neurologic disorders” (priority 2000, published 2003).

Columns and labels:
[1] = test system: osteoarthritis in dog models; settings: prophylactic administration
[2] = test system: inflammatory cells; settings: EAE
[3] = test system: microglial response; settings: experimental model of stroke, around stroke lesions
[4] = test system: patients with mild and moderate arthritis
[5] = test system: neurons; settings: tissue culture

| Compound | severity of osteoarthritis [1] | invasion of inflammatory cells into the CNS [2] | microglial response in the area surrounding areas of brain ischemia [3] | efficacy in patients with arthritis [4] | safety in patients with arthritis [4] | protection of neurons against death [5] |
| --- | --- | --- | --- | --- | --- | --- |
| C[C@H]1c2cccc(O)c2C(=O)C2=C(O)[C@]3(O)C(=O)C(C(N)=O)=C(O)[C@@H](N(C)C)[C@@H]3[C@@H](O)[C@@H]21 [doxycycline] | markedly reduced the severity of osteoarthritis | – | – | – | – | – |
| CN(C)c1ccc(O)c2c1C[C@H]1C[C@H]3[C@H](N(C)C)C(=O)C(C(N)=O)=C(O)[C@@]3(O)C(=O)C1=C2O [minocycline] | – | prevents the invasion of inflammatory cells into the CNS | reduced the microglial response | effective | safe | protects neurons against death |
